According to PMC8041284, “Tunable Methacrylamides for Covalent Ligand Directed Release Chemistry” (Journal of the American Chemical Society, 2021):

Target: BTK (Homo sapiens, UniProt Q06187)
Experiment: biochemical
Conditions: read-out: BTK inhibition (%), 0.75 uM BTK, […] probe 3l, 15 min preincubation

BTK, sequence (Q06187 402-655 limits assumed): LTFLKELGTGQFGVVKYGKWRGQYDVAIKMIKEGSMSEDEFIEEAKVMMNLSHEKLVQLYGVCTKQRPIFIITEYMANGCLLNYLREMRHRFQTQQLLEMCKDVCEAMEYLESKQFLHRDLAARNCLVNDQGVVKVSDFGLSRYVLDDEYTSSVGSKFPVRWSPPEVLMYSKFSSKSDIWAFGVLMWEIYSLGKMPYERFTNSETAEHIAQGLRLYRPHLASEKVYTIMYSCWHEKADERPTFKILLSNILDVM

SMILES	inhibition at 10 µM [%]
OC[C@H]1OC(O)[C@H](O)[C@@H](O)[C@H]1O (some centres unmarked) [PCM-0215038]	-23.3
COC(=O)[C@@]1(C)CC[C@]2(C(=O)O)CC[C@]3(C)C(=CC[C@@H]4[C@@]5(C)C[C@H](O)[C@H](O)[C@@](C)(CO)[C@@H]5CC[C@]43C)[C@@H]2C1 [PCM-0216474]	-0.8
FC(F)c1nc2ccccc2n1-c1nc(N2CCOCC2)nc(N2CCOCC2)n1 [PCM-0095021]	16.6
C[C@@H]1CC[C@@]2(OC1)O[C@H]1C[C@H]3[C@@H]4CC=C5C[C@@H](O[C@@H]6O[C@H](CO)[C@@H](O[C@@H]7O[C@@H](C)[C@H](O[C@@H]8O[C@@H](C)[C@H](O)[C@@H](O)[C@H]8O)[C@@H](O)[C@H]7O)[C@H](O)[C@H]6O[C@@H]6O[C@@H](C)[C@H](O)[C@@H](O)[C@H]6O)CC[C@]5(C)[C@H]4CC[C@]3(C)[C@@]1(O)[C@@H]2C [PCM-0216432]	-12.4
CC1=C(/C=C/C(C)=C/C=C/C(C)=C\C(=O)O)C(C)(C)CCC1 [PCM-0065511]	-42.1
CC(C)(C)NS(=O)(=O)c1cncc(-c2cc(F)c3nc(N)nn3c2)c1 [PCM-0215240]	-4.8
CCOC(=O)C1=C(C)NC(=S)NC1c1cccc(O)c1 (centres unmarked) [PCM-0215759]	-25.5
CC(C(=O)O)c1ccc(C(=O)c2cccs2)cc1 (centres unmarked) [PCM-0086408]	-1.4
O=S(=O)(CC1CS1)c1ccc(Oc2ccccc2)cc1 (centres unmarked) [PCM-0095742]	20.8
O=C(C[S+]([O-])Cc1ccco1)NC/C=C\COc1cc(CN2CCCCC2)ccn1 (centres unmarked) [PCM-0095231]	-9
O=c1ccn([C@@H]2O[C@H](COP(=O)(O)O)[C@@H](O)[C@H]2O)c(=O)[nH]1 [PCM-0216290]	-6.8
Nc1nc(Cl)nc2c1ncn2[C@H]1C[C@H](O)[C@@H](CO)O1 [PCM-0086228]	-16.6
C[C@H]1C[C@H]2[C@@H]3CCC4=CC(=O)C=C[C@]4(C)[C@H]3C(=O)C[C@]2(C)[C@@]1(O)C(=O)CO [PCM-0095139]	29
CC1=CC(=O)CC(C)(C)C1=O [PCM-0215085]	7.8
COCCCC/C(=N\OCCN)c1ccc(C(F)(F)F)cc1 [PCM-0065088]	-8.6
CC[C@@H](C(N)=O)N1CCCC1=O [PCM-0064838]	15.6
NC(=O)CC[C@H](N)C(=O)O [PCM-0065292]	17.9

Results, then the compound that gave them:

inhibition at 10 µM [%]	SMILES
-27.8	COc1ccc(C2=N[C@H](c3ccc(Cl)cc3)[C@H](c3ccc(Cl)cc3)N2C(=O)N2CCNC(=O)C2)c(OC(C)C)c1 [PCM-0215386]
72.6	CN(C)c1ccc2c(c1)Sc1cc(N(C)C)ccc1N2 [PCM-0215668]
-28	CCOC(=O)C1=C(C)NC(C)=C(C(=O)OC)C1c1cccc([N+](=O)[O-])c1 (centres unmarked) [PCM-0064714]
18.5	COC(=O)N[C@H](C(=O)N1CCC[C@H]1C(=O)Nc1ccc([C@@H]2CC[C@@H](c3ccc(NC(=O)[C@@H]4CCCN4C(=O)[C@@H](NC(=O)OC)C(C)C)cc3)N2c2ccc(C(C)(C)C)cc2)cc1)C(C)C [PCM-0216056]
6.2	Clc1ccc(N/N=C(\c2ccccc2)c2ccccn2)nc1 [PCM-0215265]
36.6	COc1cc(F)c(F)c(Nc2ccc(I)cc2F)c1NS(=O)(=O)C1(C[C@H](O)CO)CC1 [PCM-0214795]
-4.7	COc1ccc(C(=O)N2CCCC2=O)cc1 [PCM-0064527]
30.9	C[C@@H]1Cc2c([nH]c3ccccc23)[C@@H](c2c(F)cc(/C=C/C(=O)O)cc2F)N1CC(C)(C)F [PCM-0215727]
47.9	COc1cc(O)c2c(c1)oc(=O)c1c3cc(O)c(O)cc3oc21 [PCM-0216602]
4.1	N[C@@H]1CCCN(c2c(/C=C3\SC(=O)NC3=O)cccc2-c2ccccc2)C1 [PCM-0095732]
-13.1	CC[C@H]1CN2CC[C@H]1C[C@H]2[C@H](O)c1ccnc2ccc(OC)cc12 [PCM-0215969]
23.4	CCCS(=O)(=O)Nc1ccc(F)c(C(=O)c2c[nH]c3ncc(Cl)cc23)c1F [PCM-0094979]
